Results taken from patent publication US5916920A, “3-substituted Bicyclo[3.1.0]hexane-6-carboxylic acids” (Eli Lilly and Company, priority 1996, dated 1999).
One block for each compound: values may come before it.

Legend:
[1] = tested on: metabotropic glutamate receptors; assay: selective displacement of 1S,3R-ACPD-sensitive [^3 H]glutamate binding to rat brain cell membranes; details: crude membranes of rat forebrain
Procedure: The binding of [^3 H]glutamate was conducted with crude membranes of rat forebrain as described by Schoepp and True. Schoepp and True, Neuroscience Lett., 145, 100-104 (1992) and Wright et al., J. Neurochemisty 63: 938-945 (1994).

[2] = mouse elevated plus maze model; type: in vivo
[3] = mouse conditioned active avoidance response model; type: in vivo
Excerpt: (Pfeiffer & Jenney, Ann. N.Y. Acad. Sci., 66:[…], 1957; Maffii, J. Pharm. Pharmacol., 11: 129-139, 1959; Cook & Weidley, Ann; N.Y. Acad. Sci., 66: […], 1957; Janke, Handbook of Experimental Pharmacology, Vol. 55/I, New York: Plenum Press, 1978).

IC50 [1]: 320 nM
Compound: Mixture of 1SR,2SR,3RS,5RS,6SR-2-amino-3-(3-phenylpropyl)bicyclo[3.1.0]-hexane-2,6-dicarboxylic acid and 1SR, 2RS, 3RS, 5RS, 6SR-2-amino-3-(3-phenylpropyl)bicyclo[3.1.0]hexane-2,6-dicarboxylic acid [Example 1]

Compound: Cc1cccc(C[C@@H]2C[C@H]3[C@H](C(=O)O)[C@H]3[C@]2(N)C(=O)O)c1 (relative stereo) [Example 4, 1SR,2SR,3SR,5RS,6SR-Amino-3-((3-methyl)benzyl)bicyclo[3.1.0]hexane-2,6-dicarboxylic acid]
anxiolytic effect in the mouse elevated plus maze model [2]: anxiolytic effect

Compound: N[C@@]1(C(=O)O)[C@H](Cc2ccc(F)c(F)c2F)C[C@H]2[C@H](C(=O)O)[C@H]21 (relative stereo) [Example 25, 1SR,2SR,3SR,5RS,6SR-2-Amino-3-((2,3,4-trifluoro)benzyl)bicyclo[3.1.0]hexane-2,6-dicarboxylic acid]
neuroleptic properties in the mouse conditioned active avoidance response model [3]: neuroleptic properties
